Assay results published in US20040266623A1, “SYNERGISTIC QUINCLORAC HERBICIDAL COMPOSITIONS” (priority 2003, published 2004).

Key:
Assay in all cases: Greenhouse pot test, postemergent spray, visual control rating converted to percent control
Format in all cases: in vivo
crabgrass = system: crabgrass
Experimental: (§1) Pots of crabgrass, dandelion, white clover, and plantain grown in greenhouse soiless growth media were sprayed with a greenhouse pot sprayer at 43.46 gallons of spray solution/acre and allowed to stand in the greenhouse. Visual observation of the effects made by the herbicidal compositions on the plants in the test pots was recorded for control of crabgrass, dandelion, clover and plantain at 24 hours after treatment (HAT), 48 hours after treatment (HAT), 72 hours after treatment (HAT), 7 days after treatment (DAT), 14 days after treatment (DAT) and 21 days after treatment (DAT). A control rating scale of 1 to 9 was used to record the visual observation of the effect of the herbicidal composition on the plants over the time period of the tests. 1=no control, and 9=death of plant, with intervening numbers representing successive degrees of observed effectiveness of the herbicidal composition over time. The 1-9 control rating scale was converted to percent control in the test data charts that follow.
(§2) The test protocol of S. R. Colby as set out in his article entitled “Calculating Synergistic and Antagonistic Responses of Herbicide Compositions,” received for publication Apr. 11, 1966, Contribution No. 3796 and Scientific Article No. 1271 of the Maryland Agricultural Experiment Station, Department pf Agronomy, University of Maryland was followed to evaluate the synergistic properties of the combination of quinclorac plus a herbicidal protox inhibitor, and a combination of quinclorac, plus a herbicidal protox inhibitor plus a herbicidal auxinic agent as compared with the individual herbicides, using Colby's formulas E=X+Y−XY/100 for a two herbicide combination, where E=the expected percent of inhibition of growth by herbicides, X=the percent inhibition of growth by herbicide A at p lb/A, and Y=the percent inhibition of growth by herbicide B at q lb/A, for a given combination of two herbicides. Colby's formula E=X+Y+Z−(XY+XZ+YZ)/100+XYZ/10,000, was used for the three-way herbicide combination evaluation, where E, X and Y are the same as in the two herbicide formula and Z=the percent inhibition of growth by the third herbicide.

white clover = system: white clover
Experimental: as §1, §2

plantain = system: plantain
Experimental: as §1, §2

dandelion = system: dandelion
Experimental: as §1, §2

[1] = Test 3, 7 DAT, scale 1=no control, 9=death of plant
[2] = Test 3, 14 DAT, scale 1=no control, 9=death of plant
[3] = Test 3, 21 DAT, scale 1=no control, 9=death of plant
[4] = Test 3, 24 HAT, scale 1=no control, 9=death of plant
[5] = Test 3, 72 HAT, scale 1=no control, 9=death of plant
[6] = Test 4, 24 HAT, scale 1=no control, 9=death of plant
[7] = Test 4, 72 HAT, scale 1=no control, 9=death of plant

In the case of `Cc1cc(Cl)ccc1OCC(=O)OCCCCCC(C)C` [MCPA IOE @ 1.10 lbs/A], the “% Control Crabgrass” value (crabgrass; Test 3, 7 DAT) is reported as 11.1%, the “Control (1-9) Crabgrass” value (crabgrass; [1]) is reported as 1 and the “% Control Crabgrass” value (crabgrass; Test 3, 14 DAT) is reported as 22.2%. For the same molecule, the “Control (1-9) Crabgrass” value (crabgrass; [2]) was 2, the “% Control Crabgrass” value (crabgrass; Test 3, 21 DAT) was 44.4% and the “Control (1-9) Crabgrass” value (crabgrass; [3]) was 4. For the same molecule, the “% Control Crabgrass” value (crabgrass; Test 3, 24 HAT) was 11.1%, the “Control (1-9) Crabgrass” value (crabgrass; [4]) was 1 and the “% Control Crabgrass” value (crabgrass; Test 3, 72 HAT) was 11.1%. For the same molecule, the “Control (1-9) Crabgrass” value (crabgrass; [5]) was 1, the “% Control Crabgrass” value (crabgrass; Test 4, 24 HAT) was 11.1% and the “Control (1-9) Crabgrass” value (crabgrass; [6]) was 1. The “% Control Crabgrass” value (crabgrass; Test 4, 72 HAT) was 11.1%, the “Control (1-9) Crabgrass” value (crabgrass; [7]) was 1 and the “% Control Clover” value (white clover; Test 3, 7 DAT) was 66.7%. For the same molecule, the “Control (1-9) Clover” value (white clover; [1]) was 6, the “% Control Clover” value (white clover; Test 3, 14 DAT) was 88.9% and the “Control (1-9) Clover” value (white clover; [2]) was 8. The “% Control Clover” value (white clover; Test 3, 21 DAT) was 100.0%, the “Control (1-9) Clover” value (white clover; [3]) was 9 and the “% Control Clover” value (white clover; Test 3, 24 HAT) was 44.4%. For the same molecule, the “Control (1-9) Clover” value (white clover; [4]) was 4, the “% Control Clover” value (white clover; Test 3, 72 HAT) was 44.4% and the “Control (1-9) Clover” value (white clover; [5]) was 4. For the same molecule, the “% Control Clover” value (white clover; Test 4, 24 HAT) was 44.4%, the “Control (1-9) Clover” value (white clover; [6]) was 4 and the “% Control Clover” value (white clover; Test 4, 72 HAT) was 55.6%. For the same molecule, the “Control (1-9) Clover” value (white clover; [7]) was 5, the “% Control Plantain” value (plantain; Test 3, 7 DAT) was 66.7% and the “Control (1-9) Plantain” value (plantain; [1]) was 6. For the same molecule, the “% Control Plantain” value (plantain; Test 3, 14 DAT) was 77.8%, the “Control (1-9) Plantain” value (plantain; [2]) was 7 and the “% Control Plantain” value (plantain; Test 3, 21 DAT) was 77.8%. For the same molecule, the “Control (1-9) Plantain” value (plantain; [3]) was 7, the “% Control Plantain” value (plantain; Test 3, 24 HAT) was 44.4% and the “Control (1-9) Plantain” value (plantain; [4]) was 4. For the same molecule, the “% Control Plantain” value (plantain; Test 3, 72 HAT) was 44.4%, the “Control (1-9) Plantain” value (plantain; [5]) was 4 and the “% Control Plantain” value (plantain; Test 4, 24 HAT) was 22.2%. For the same molecule, the “Control (1-9) Plantain” value (plantain; [6]) was 2, the “% Control Plantain” value (plantain; Test 4, 72 HAT) was 44.4% and the “Control (1-9) Plantain” value (plantain; [7]) was 4. For the same molecule, the “% Control Dandelion” value (dandelion; Test 3, 7 DAT) was 66.7%, the “Control (1-9) Dandelion” value (dandelion; [1]) was 6 and the “% Control Dandelion” value (dandelion; Test 3, 14 DAT) was 77.8%. For the same molecule, the “Control (1-9) Dandelion” value (dandelion; [2]) was 7, the “% Control Dandelion” value (dandelion; Test 3, 21 DAT) was 88.9% and the “Control (1-9) Dandelion” value (dandelion; [3]) was 8. For the same molecule, the “% Control Dandelion” value (dandelion; Test 3, 24 HAT) was 33.3%, the “Control (1-9) Dandelion” value (dandelion; [4]) was 3 and the “% Control Dandelion” value (dandelion; Test 3, 72 HAT) was 55.6%. For the same molecule, the “Control (1-9) Dandelion” value (dandelion; [5]) was 5, the “% Control Dandelion” value (dandelion; Test 4, 24 HAT) was 33.3% and the “Control (1-9) Dandelion” value (dandelion; [6]) was 3. For the same molecule, the “% Control Dandelion” value (dandelion; Test 4, 72 HAT) was 55.6% and the “Control (1-9) Dandelion” value (dandelion; [7]) was 5.

`Cc1cc(Cl)ccc1OCC(=O)OCCCCCC(C)C` [MCPA IOE] was tested, and the “% Control Crabgrass” value (crabgrass; Test 4, 7 DAT, 1.10 lbs/A) was 11.1%, the “Control (1-9) Crabgrass” value (crabgrass; Test 4, 7 DAT, 1.10 lbs/A) was 1 and the “% Control Crabgrass” value (crabgrass; Test 4, 14 DAT, 1.10 lbs/A) was 11.1%. For the same molecule, the “Control (1-9) Crabgrass” value (crabgrass; Test 4, 14 DAT, 1.10 lbs/A) was 1, the “% Control Clover” value (white clover; Test 4, 7 DAT, 1.10 lbs/A) was 66.7% and the “Control (1-9) Clover” value (white clover; Test 4, 7 DAT, 1.10 lbs/A) was 6. The “% Control Clover” value (white clover; Test 4, 14 DAT, 1.10 lbs/A) was 100.0%, the “Control (1-9) Clover” value (white clover; Test 4, 14 DAT, 1.10 lbs/A) was 9 and the “% Control Plantain” value (plantain; Test 4, 7 DAT, 1.10 lbs/A) was 66.7%. The “Control (1-9) Plantain” value (plantain; Test 4, 7 DAT, 1.10 lbs/A) was 6, the “% Control Plantain” value (plantain; Test 4, 14 DAT, 1.10 lbs/A) was 66.7% and the “Control (1-9) Plantain” value (plantain; Test 4, 14 DAT, 1.10 lbs/A) was 6. For the same molecule, the “% Control Dandelion” value (dandelion; Test 4, 7 DAT, 1.10 lbs/A) was 44.4%, the “Control (1-9) Dandelion” value (dandelion; Test 4, 7 DAT, 1.10 lbs/A) was 4 and the “% Control Dandelion” value (dandelion; Test 4, 14 DAT, 1.10 lbs/A) was 55.6%. The “Control (1-9) Dandelion” value (dandelion; Test 4, 14 DAT, 1.10 lbs/A) was 5.
